Data from patent US8426587B2, “Haloallylamine inhibitors of SSAO/VAP-1 and uses therefor” (Pharmaxis Ltd., priority 2007, dated 2013).
Counter-ions that a name gives are not always drawn. Like-named read-outs stand apart in the source and are kept apart here.

Tests used:
Human SSAO/VAP-1 = molecular target: T1, Human SSAO/VAP-1 (Homo sapiens, UniProt Q16853); assay: Inhibition of amine oxidase activity of purified human SSAO/VAP-1 (Amplex Red); assay type: biochemical; conditions: purified human SSAO, 30 min at 37° C. preincubation, 300 μM benzylamine
T1 sequence (Q16853 1-763): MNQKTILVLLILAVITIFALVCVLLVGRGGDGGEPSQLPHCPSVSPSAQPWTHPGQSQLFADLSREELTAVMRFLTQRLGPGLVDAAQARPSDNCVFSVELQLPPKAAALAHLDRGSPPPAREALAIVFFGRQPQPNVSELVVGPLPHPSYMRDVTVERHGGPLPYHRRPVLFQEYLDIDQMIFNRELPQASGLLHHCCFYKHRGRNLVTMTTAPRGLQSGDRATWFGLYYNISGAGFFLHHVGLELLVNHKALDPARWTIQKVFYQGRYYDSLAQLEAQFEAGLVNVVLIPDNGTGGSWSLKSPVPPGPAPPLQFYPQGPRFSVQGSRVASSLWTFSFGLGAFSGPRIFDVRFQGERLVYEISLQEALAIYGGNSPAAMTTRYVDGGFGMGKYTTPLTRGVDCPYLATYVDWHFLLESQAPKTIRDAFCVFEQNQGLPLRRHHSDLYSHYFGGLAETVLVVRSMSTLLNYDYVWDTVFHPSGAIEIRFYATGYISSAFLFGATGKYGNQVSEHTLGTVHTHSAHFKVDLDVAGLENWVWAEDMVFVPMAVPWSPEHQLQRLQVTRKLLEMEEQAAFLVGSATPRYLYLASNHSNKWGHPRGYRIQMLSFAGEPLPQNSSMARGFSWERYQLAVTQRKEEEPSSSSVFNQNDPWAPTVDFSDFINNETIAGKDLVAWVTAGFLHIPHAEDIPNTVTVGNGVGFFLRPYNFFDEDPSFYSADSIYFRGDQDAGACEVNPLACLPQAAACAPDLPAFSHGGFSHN
Protocol: (§1) To measure the SSAO activity, adipocyte homogenate (0.5 mg/mL) or adipocytes (adhering cells) containing 0.5 mM pargyline, or purified human SSAO was incubated in 0.1 M sodium phosphate buffer pH 7.4 with varying concentrations of test compounds for 30 min at 37° C. The homogenate was then incubated at 37° C. with 60 μM Amplex® Red, 0.75 U/mL HRP and 40 μM benzylamine (mouse SSAO) or 300 μM benzylamine (human SSAO) and the formation of resorufin was measured (excitation range 530-560 nm and emission at 590 nm) every 10 min in either a Tecan Infinite 200 or a BMG plate reader. The IC50 values were estimated using Graphpad Prism software. The IC50 is an estimation of the concentration of the test compound to inhibit the amine oxidase activity of SSAO/VAP-1 by 50%. The IC50 values of certain invention compounds are included in Table 1.

Mouse SSAO/VAP-1 = molecular target: T2, Mouse SSAO/VAP-1 (Mus musculus, UniProt O70423); assay: Inhibition of amine oxidase activity of mouse SSAO/VAP-1 (3T3-L1 adipocytes, Amplex Red); assay type: biochemical; conditions: 3T3-L1 adipocyte SSAO, 30 min at 37° C. preincubation, 40 μM benzylamine
T2 construct: Adipocytes were used as an SSAO source either as adherent cells or as a homogenate; endogenous in cells; host or cells: 3T3-L1 murine fibroblasts (ATCC) differentiated into adipocytes
T2 sequence (O70423 1-765): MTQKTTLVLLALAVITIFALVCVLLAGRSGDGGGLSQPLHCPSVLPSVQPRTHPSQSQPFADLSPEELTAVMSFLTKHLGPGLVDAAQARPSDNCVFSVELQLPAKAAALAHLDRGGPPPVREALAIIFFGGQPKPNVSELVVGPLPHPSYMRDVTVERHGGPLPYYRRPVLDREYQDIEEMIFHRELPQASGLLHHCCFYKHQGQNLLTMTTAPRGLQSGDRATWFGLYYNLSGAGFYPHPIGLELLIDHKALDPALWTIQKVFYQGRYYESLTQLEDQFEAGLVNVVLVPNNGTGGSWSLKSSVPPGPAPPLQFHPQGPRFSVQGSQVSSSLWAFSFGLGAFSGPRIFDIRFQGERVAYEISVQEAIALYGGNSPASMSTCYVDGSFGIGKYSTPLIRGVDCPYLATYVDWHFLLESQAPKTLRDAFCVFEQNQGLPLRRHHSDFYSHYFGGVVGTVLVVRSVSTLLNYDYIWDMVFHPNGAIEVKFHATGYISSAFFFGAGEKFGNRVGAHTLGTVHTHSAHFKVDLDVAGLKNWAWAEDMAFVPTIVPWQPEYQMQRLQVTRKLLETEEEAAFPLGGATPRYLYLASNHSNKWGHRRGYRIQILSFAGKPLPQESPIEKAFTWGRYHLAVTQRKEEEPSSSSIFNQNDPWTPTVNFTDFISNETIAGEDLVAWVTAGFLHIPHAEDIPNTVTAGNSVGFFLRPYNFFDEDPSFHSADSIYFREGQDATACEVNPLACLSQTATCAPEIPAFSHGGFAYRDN
Text: 3T3-L1 Murine fibroblasts were purchased from the American Type Culture Collection (ATCC, Rockville, Md.). Dulbecco's Modified Eagle Medium (DMEM) and fetal calf serum (FCS), antibiotics and Amplex® Red were obtained from Invitrogen (Carlsbad, Calif.). Tissue culture plastics and black clear-bottom 96 well plates were from BD Falcon (Bedford, Mass.). Bicinchoninic acid (BCA) reagent was from Pierce (Rockford, Ill.). All other materials were obtained from Sigma (St. Louis, Mo.).
3T3-L1 Fibroblasts were cultured in DMEM supplemented with 10% heat-inactivated FCS, 2 mM L-glutamine, 100 U/L penicillin and 100 μg/L streptomycin at 37° C. in 5% CO2. For differentiation into adipocytes, fibroblasts were cultured in DMEM with FCS for 1 or 2 days postconfluence, after which the cells were cultured for 3 days in DMEM containing 10% FCS, 350 nM insulin, 0.5 mM 3-isobutyl-1-methylxanthine, 250 nM dexamethasone, and 400 nM biotin and for 3 days in DMEM containing 10% FCS and 350 nM insulin. After differentiation, adipocytes were maintained in DMEM supplemented with 10% FCS. Adipocytes were used for experiments 8 to 11 days after the onset of differentiation, and the medium was renewed 2 or 3 days prior to each experiment. For culturing in black clear-bottom 96-well plates, cells were seeded at a 1:1 cell surface ratio, and differentiation was initiated 4 days postseeding. Cells were used between days 6-12 post-differentiation and between passages 7 and 20. Adipocytes were used as an SSAO source either as adherent cells or as a homogenate.
To prepare homogenate, 10 cm dishes of adipocytes were washed with HES buffer (20 mM HEPES, 1 mM EDTA, 250 mM sucrose, pH 7.4) and scraped in HES buffer containing 10 μg/mL leupeptin, 10 μM pepstatin and 1 mM PMSF. Cells were lysed by passage through a 23 G needle followed by passage through a 27 G needle. The lysate was spun at 500 g for 5 min and fat was removed. Protein concentration of the supernatant was measured using a BCA assay according to the manufacturer's instructions. The homogenate was stored at −80° C. until needed.
as §1

Human MAO-B = molecular target: T3, Human MAO-B (Homo sapiens, UniProt P27338); assay: Inhibition of recombinant MAO-B (Amplex Red); assay type: biochemical; conditions: 30 min at 37° C. preincubation, 50 μM benzylamine
T3 sequence (P27338 1-520): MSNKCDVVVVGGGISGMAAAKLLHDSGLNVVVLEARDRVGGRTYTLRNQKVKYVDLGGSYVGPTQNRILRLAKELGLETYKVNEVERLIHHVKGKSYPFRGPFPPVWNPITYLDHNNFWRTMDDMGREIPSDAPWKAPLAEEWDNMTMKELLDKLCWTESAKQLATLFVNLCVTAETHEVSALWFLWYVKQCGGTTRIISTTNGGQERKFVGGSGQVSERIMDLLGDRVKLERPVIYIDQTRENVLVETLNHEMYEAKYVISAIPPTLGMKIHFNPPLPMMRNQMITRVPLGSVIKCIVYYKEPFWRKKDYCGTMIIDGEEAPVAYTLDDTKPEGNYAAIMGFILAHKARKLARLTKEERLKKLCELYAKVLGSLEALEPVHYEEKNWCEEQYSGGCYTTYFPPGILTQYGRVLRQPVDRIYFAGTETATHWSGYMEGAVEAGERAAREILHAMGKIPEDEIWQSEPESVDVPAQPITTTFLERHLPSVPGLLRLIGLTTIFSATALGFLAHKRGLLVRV
Protocol: Recombinant MAO-B was incubated in 0.1 M sodium phosphate buffer pH 7.4 with varying concentration of test compounds for 30 min at 37° C. The homogenate/protein was then incubated at 37° C. with […] Amplex® Red, 0.75 U/ml HRP and 40 μM benzylamine (mouse SSAO), 300 μM benzylamine (human SSAO), 100 μM tyramine (MAO-A) or 50 μM benzylamine (MAO-B) and the formation of resorufin was measured (excitation range 530-560 nm and emission at 590 nm) every 5 min in either a Tecan Infinite 200 or a BMG Fluorostar Optima platereader. IC50 were estimated using Graphpad Prism software.

SSAO/VAP-1 = molecular target: T4, SSAO/VAP-1 (Mus musculus, UniProt O70423); assay: In vivo inhibition of SSAO/VAP-1 activity in mouse genital fat; parameters: species or system BALB/C mice; conditions: ip
T4 construct: the genital fat was excised and frozen; The tissue was homogenized; from tissue; host or cells: genital fat of BALB/C mice
T4 sequence (O70423 1-765): T2 sequence (O70423 1-765)
Protocol: In vivo inhibition was assessed in mouse genital fat, a tissue with high SSAO/VAP-1 expression. 10 BALB/C mice (5 males and 5 females) were administered 0 mg/kg, 10 mg/kg, 30 mg/kg or 100 mg/kg SSAO/VAP-1 inhibitor by intraperitoneal injection. Two hours after administration the mice were sacrificed and the genital fat was excised and frozen. The tissue was homogenized in 0.01 M sodium phosphate buffer pH 7.4 (10 mL/g) and used to measure SSAO activity using Amplex® Red. ED50 was estimated Using Graphpad Prism software.

[1] = female BALB/C mice, intraperitoneal, genital fat SSAO activity two hours after administration, read-out: Female Mice ED50 [ip]
[2] = male BALB/C mice, intraperitoneal, genital fat SSAO activity two hours after administration, read-out: Male Mice ED50 [ip]
[3] = read-out: Female Mice ED50 [ip]

| IC50 (Human SSAO/VAP-1) | IC50 (Mouse SSAO/VAP-1) | IC50 (Human MAO-B) | ED50 (SSAO/VAP-1; [1]) | ED50 (SSAO/VAP-1; [2]) | Compound | ED50 (SSAO/VAP-1; [3]) | ED50 (SSAO/VAP-1; read-out: Male Mice ED50 [ip]) |
| --- | --- | --- | --- | --- | --- | --- | --- |
| < 10 µM | < 1 µM |  |  |  | NC/C=C(\Cl)Cc1cc(F)cc(F)c1 [(Z)-3-Chloro-4-(3,5-difluorophenyl)but-2-en-1-amine hydrochloride, reference compound] |  |  |
| < 1 µM | < 100 µM | < 1 µM |  |  | NC/C=C(/F)COc1cccc(C(F)(F)F)c1 [(E)-3-Fluoro-4-(3-(trifluoromethyl)phenoxy)but-2-en-1-amine hydrochloride] |  |  |
|  |  |  | < 150 mg/kg | < 150 mg/kg | CC(C)S(=O)(=O)c1ccc(OC/C(F)=C\CN)cc1.Cl [(E)-3-Fluoro-4-(4-(isopropylsulfonyl)phenoxy)but-2-en-1-amine hydrochloride] |  |  |
|  |  |  |  |  | C[C@H](NC(=O)c1ccc(OC/C(F)=C\CN)cc1)c1ccccc1.Cl [S-(E)-4-(4-Amino-2-fluorobut-2-enyloxy)-N-(1-phenylethyl)benzamide hydrochloride] | < 50 mg/kg | < 50 mg/kg |
| < 1 µM | < 1 µM | < 1 µM |  |  | NC/C=C(/F)COc1ccc(C(=O)NCc2ccccc2)cc1 [(E)-4-(4-Amino-2-fluorobut-2-enyloxy)-N-benzylbenzamide hydrochloride] |  |  |
| < 10 µM | < 10 µM |  |  |  | NC/C=C(\Cl)CCc1ccccc1 [(Z)-3-Chloro-5-phenylpent-2-en-1-amine hydrochloride, reference compound] |  |  |
|  |  |  | < 50 mg/kg | < 50 mg/kg | Cl.NC/C=C(/F)COc1ccc(C(=O)NC2CCCC2)cc1 [(E)-4-(4-Amino-2-fluorobut-2-enyloxy)-N-cyclopentylbenzamide hydrochloride] |  |  |
| < 1 µM | < 10 µM | < 10 µM |  |  | NC/C=C(/F)COc1ccc(S(=O)(=O)N2CCOCC2)cc1 [(E)-3-Fluoro-4-(4-(morpholinosulfonyl)phenoxy)but-2-en-1-amine hydrochloride] |  |  |
|  |  |  |  |  | C[C@@H](NC(=O)c1ccc(OC/C(F)=C\CN)cc1)c1ccccc1.Cl [R-(E)-4-(4-Amino-2-fluorobut-2-enyloxy)-N-(1-phenylethyl)benzamide hydrochloride] | < 150 mg/kg | < 50 mg/kg |
| < 1 µM | < 10 µM | < 1 µM |  |  | NC/C=C(/F)COc1ccc(Cl)cc1Cl [(E)-4-(2,4-Dichlorophenoxy)-3-fluorobut-2-en-1-amine hydrochloride] |  |  |
| < 1 µM | < 100 µM | < 100 µM |  |  | CC(C)N(C(=O)c1ccc(OC/C(F)=C\CN)cc1)C(C)C [(E)-4-(4-Amino-2-fluorobut-2-enyloxy)-N,N-diisopropylbenzamide hydrochloride] |  |  |
| < 1 µM | < 10 µM | < 1 µM |  |  | NC/C=C(/F)COc1ccccc1 [(E)-3-fluoro-4-phenoxybut-2-en-1-amine hydrochloride] |  |  |
|  |  |  | < 300 mg/kg | < 50 mg/kg | Cl.NC/C=C(/F)COc1ccc(S(=O)(=O)Cc2ccccc2)cc1 [(E)-4-(4-(Benzylsulfonyl)phenoxy)-3-fluorobut-2-en-1-amine hydrochloride] |  |  |
| < 1 µM | < 10 µM | < 1 µM |  |  | NC/C=C(/F)COc1ccc([N+](=O)[O-])cc1 [(E)-3-Fluoro-4-(4-nitrophenoxy)but-2-en-1-amine hydrochloride] |  |  |
